Experimental findings from patent publication US8759363B2, “Quinazoline-based T cell proliferation inhibitors” (Yissum Research Development Company of the Hebrew …, priority 2010, dated 2014) are described below.

One assay concerns A375. The assay is described as follows: A375 proliferation, BrdU uptake. The format is cell-based. As to conditions: Homo sapiens, A-375. As to the method: (§1) Cells were depleted of fetal calf serum (FCS) for 12 hours. They were then stimulated to proliferate by addition of ConA (10 μg/ml) for PBMC from healthy individuals and for Jurkat cells, FCS (10%) for HEK293 and A375 cells, PDGF (30 ng/ml) for NIH 3T3 cells, and EGF (30 ng/ml) for MDA-MB-231, Cells (1×10^5) were cultured in 96-well plates for 3 days in the presence or absence of inhibitors at the concentrations specified in the text. Each condition was tested in duplicate wells.
(§2) Proliferation was assessed by BrdU incorporation using a colorimetric ELISA kit (Roche, Germany). Subsequent to labeling with 10 μM BrdU, DNA was denatured and the cells were incubated with anti-BrdU-POD, prior to the addition of colorimetric substrate (TMB). The reaction product was quantified by measuring absorbance at 450 nm in an ELISA plate reader (ELx800 BIO-TEK Instruments Inc.).
(§3) To characterize the mode of action of 2 (S101) in more detail, we first examined whether 2 inhibits non-hematopoietic cell lines. We studied the effect of 2 on the growth of four cell lines: NIH 3T3 (mouse embryonic fibroblasts), A-431 (human vulval carcinoma cells), MDA-MB-468 (human breast carcinoma cells), and PANC-1 (human pancreatic carcinoma cells) (FIGS. 1A-B). We also tested the inhibitors on human keratinocytes. […]

In the next assay the test system is OT2 (resting) cells. The assay is described as follows: MLR with resting control cells, resting OT2 cells. It is filed as cell-based, mouse. As to conditions: 0.5 μM, 72 h MLR with IL-7; no inhibitor 1025. The text has this: The aim of this test was to determine whether 2 affects only the proliferating cells or there is a general mechanism affecting all cell numbers. For this purpose we mixed 3 cell types: […]: BALB/c, 2C and OT1; […]: CB6F1, TEA and OT2. The OT1 and OT2 are splenocytes that were isolated from OT1 and OT2 mice (Jackson Laboratories, Bar Harbor, Me.),
Thus, the ability to monitor the fate of proliferation and resting cells by FACS was enabled due to the use of the MLR described above for CD4+ and CD8+ and the addition of OT2 and OT1 splenocytes, respectively.
Proliferating cells often secrete cytokines that induce survival of neighbouring cells; since the proliferation was expected to be inhibited we added 50 ng/ml of IL-7. This concentration is sufficient to keep the cells alive, but not to induce proliferation.
The number of TEA and OT2 cells that were treated with 0.5 μM 2 was 1452 and 826, respectively, while the number of 2C and OT1 cells that were treated with 0.5 μM 21 was 3003 and 903, respectively. This is depicted as a bar-graph in FIG. 9C.

For another assay, the system named is PC3. The assay is described as follows: PC-3 proliferation, BrdU uptake. As to conditions: Homo sapiens. It is filed as cell-based.
The next assay has as its system MDA-MB-231. The assay is described as follows: MDA-MB-231 proliferation, BrdU uptake. The format is cell-based. As to conditions: Homo sapiens. As to the method:
as §1, §2, §3

Another assay concerns NIH3T3. The assay is described as follows: NIH3T3 proliferation, BrdU uptake. As to conditions: Mus musculus. The format is cell-based. The method, then:
as §1, §2, §3

For assay [1], the system named is PBMC depleted of CD3+ cells. Description: Proliferation of PBMC depleted of CD3+ cells, BrdU. As to conditions: Homo sapiens, stimulated by ODN2006 or LPS, stated as similar to ~0.5 μM, read-out: IC50 for PBMCs depleted of CD3+ cells. It is filed as cell-based. As to the method:
(§4) Blood samples were taken from healthy donors and loaded on a Ficoll density gradient to purify the PBMC population. T cells were purified by human anti-CD3 using an autoMACS instrument (Miltenyi Biotec, Bergisch-Gladbach, Germany), according to the manufacturer's instructions. The identity of T cells was confirmed by flow cytometry, as they stained positive for CD3. Cells were stimulated with ConA (10 μg/ml), ODN2006 (0.5 μg/ml; Enzo Life Sciences), or LPS (50 μg/ml; Sigma-Aldrich, Steinheim, Germany), for 72 h in the presence of the inhibitor, and their proliferation was measured in the BrdU incorporation assay as will be later described.
as §2
(§5) PBMC consist of a mixture of mononucleated cells, mostly T cells. To identify the cell type that was inhibited by 2, we first purified T cells from PBMC with an autoMACS apparatus (Miltenyi Biotec), using anti-CD3 antibodies. We were now able to compare three cell populations: total PBMC, CD3+ cells purified from PBMC, and PBMC that had been depleted of CD3+ cells. […]

The subject of a further assay is CD3+ cells. The assay is described as follows: Proliferation of CD3+ cells purified from PBMC, BrdU. It is filed as cell-based. Conditions: Homo sapiens, ConA-stimulated, slightly higher than, read-out: IC50 proliferation of isolated CD3+ cells. The method, then:
as §4, §2, §5

Read-outs that look alike come from different tables or passages of the source.

On to `COc1cc(-c2nc(Nc3ccc(C)cc3)c3ccccc3n2)cc(OC)c1OC` [Compound 2, N-p-tolyl-2-(3,4,5-trimethoxyphenyl)quinazolin-4-amine], for which the IC50 was around 0.8 µM in the assay on A375 (A375, non-stimulated, read-out: IC50 of non-stimulated cells); above 10 µM in the assay with A375 (A375, serum (FCS 10%) activated, read-out: IC50 of stimulated cells); around 10 µM in the assay with PC3 (PC3, non-stimulated, read-out: IC50 of non-stimulated cells); above 10 µM in the assay on PC3 (PC3, stimulated, read-out: IC50 of stimulated cells); above 10 µM in the assay with MDA-MB-231 (MDA-MB-231, EGF (30 ng/ml) activated, read-out: IC50 of stimulated cells); above 10 µM in the assay on MDA-MB-231 (MDA-MB-231, non-stimulated, read-out: IC50 of non-stimulated cells). The IC50 in the assay with NIH3T3 (NIH3T3, PDGF (30 ng/ml) activated, read-out: IC50 of stimulated cells) is around 7 µM; in the assay with NIH3T3 (NIH3T3, non-stimulated, read-out: IC50 of non-stimulated cells), around 3 µM; in assay [1], around 0.5 µM; in the assay with CD3+ cells it was above 0.1 µM. Further, the “number of OT2 (resting) cells” value in the assay on OT2 (resting) cells was 826.
